This passage reports Kd results from ChEMBL document CHEMBL1136964, “Nicotinic agonist binding site mapped by methionine- and tyrosine-scanning coupled with azidochloropyridinyl photoaffinity labeling” (J Med Chem, 2009).

Type in all cases: cell-based
The nature of assay [1]: Displacement of [3H]epibatidine from Aplysia californica AchBP M116L mutant expressed in HEK293S cells by scintillation proximity assay.
Assay [2] is described as follows: Displacement of [3H]epibatidine from wild type Aplysia californica AchBP expressed in HEK293S cells by scintillation proximity assay.
A short description of assay [3]: Displacement of [3H]epibatidine from Aplysia californica AchBP Y195F mutant expressed in HEK293S cells by scintillation proximity assay.
The nature of assay [4]: Displacement of [3H]epibatidine from Aplysia californica AchBP M116L,Y195F mutant expressed in HEK293S cells by scintillation proximity assay.
The nature of assay [5]: Displacement of [3H]epibatidine from Aplysia californica AchBP I106M, M116L mutant expressed in HEK293S cells by scintillation proximity assay.
A short description of assay [6]: Displacement of [3H]epibatidine from Aplysia californica AchBP I106M, M116L, Y195F mutant expressed in HEK293S cells by scintillation proximity assay.
A short description of assay [7]: Displacement of [3H]epibatidine from Aplysia californica AchBP A107M mutant expressed in HEK293S cells by scintillation proximity assay.
Assay [8] in a line: Displacement of [3H]epibatidine from Aplysia californica AchBP A107M, M116L mutant expressed in HEK293S cells by scintillation proximity assay.
Assay [9] is described as follows: Displacement of [3H]epibatidine from Aplysia californica AchBP A107M, M116L, Y195F mutant expressed in HEK293S cells by scintillation proximity assay.
Assay [10] in a line: Displacement of [3H]epibatidine from Aplysia californica AchBP V108M mutant expressed in HEK293S cells by scintillation proximity assay.
Assay [11] in a line: Displacement of [3H]epibatidine from Aplysia californica AchBP V108M, M116L mutant expressed in HEK293S cells by scintillation proximity assay.
Assay [12] is described as follows: Displacement of [3H]epibatidine from Aplysia californica AchBP V108M, M116L, Y195F mutant expressed in HEK293S cells by scintillation proximity assay.
A short description of assay [13]: Displacement of [3H]epibatidine from Aplysia californica AchBP S114M mutant expressed in HEK293S cells by scintillation proximity assay.
Assay [14] can be described thus: Displacement of [3H]epibatidine from Aplysia californica AchBP S114M, M116L mutant expressed in HEK293S cells by scintillation proximity assay.
A short description of assay [15]: Displacement of [3H]epibatidine from Aplysia californica AchBP S114M, M116L, Y195F mutant expressed in HEK293S cells by scintillation proximity assay.
A short description of assay [16]: Displacement of [3H]epibatidine from Aplysia californica AchBP I118M mutant expressed in HEK293S cells by scintillation proximity assay.
A short description of assay [17]: Displacement of [3H]epibatidine from Aplysia californica AchBP I118M, M116L mutant expressed in HEK293S cells by scintillation proximity assay.
The nature of assay [18]: Displacement of [3H]epibatidine from Aplysia californica AchBP I118M, M116L, Y195F mutant expressed in HEK293S cells by scintillation proximity assay.
A short description of assay [19]: Displacement of [3H]epibatidine from Aplysia californica AchBP M116Y mutant expressed in HEK293S cells by scintillation proximity assay.
Assay [20] can be described thus: Displacement of [3H]epibatidine from Aplysia californica AchBP M116Y, Y195F mutant expressed in HEK293S cells by scintillation proximity assay.

For the compound `[N-]=[N+]=Nc1cc(C2CC3CCC2N3)cnc1Cl` (stereo not given) [AZIDOEPIBATIDINE], the Kd in assay [1] was 21 nM; in assay [2], 10 nM; in [3] it was 8.6 nM; in assay [4], 10 nM; in [5], 30 nM; in assay [6], 22 nM. Moreover, the Kd in [7] came to 7.2 nM; in [8] it was 8.1 nM; in assay [9], 37 nM; in [10] it was 1.5 nM; in assay [11], 0.58 nM; in assay [12], 0.33 nM. Moreover, the Kd in assay [13] was found to be 12 nM; in assay [14], 15 nM; in [15] it was 19 nM; in [16], 4.5 nM; in assay [17], 4.8 nM; in assay [18] it was 12 nM. Further, the Kd in assay [19] was 34 nM; in assay [20] it was 67 nM.
Regarding `N#C/N=c1\sccn1Cc1cnc(Cl)c(N=[N+]=[N-])c1`, the Kd in assay [1] is 9.6 nM; in assay [2], 1.7 nM; in [3] it was 2.3 nM; in assay [4] it was 3 nM; in [5] it was 3.2 nM; in [6], 5.5 nM. In addition, the Kd in [7] was 3 nM; in assay [8] it was 1.6 nM; in [9], 17 nM; in assay [10] it was 1.1 nM; in [11], 0.46 nM; in [12] it was 0.17 nM. Also, the Kd was 2 nM in assay [13]; 3 nM in assay [14]; 7.2 nM in [15]; 70 nM in assay [16]; 68 nM in assay [17]; 172 nM in assay [18]. The Kd in [19] stood at 27 nM; in assay [20], 19 nM.
As for `N#C/N=c1\sccn1Cc1ccc(Cl)nc1` [THIACLOPRID OLEFIN], the Kd in [1] stood at 11 nM; in assay [2], 2.8 nM; in [3], 3.1 nM; in assay [4], 4.7 nM; in assay [5], 4.3 nM; in assay [6], 4.9 nM. The Kd turned out to be 4 nM in assay [7]; 3 nM in assay [8]; 20 nM in assay [9]; 9.2 nM in assay [10]; 4.8 nM in assay [11]; 1.8 nM in assay [12]. For the same compound, the Kd in assay [13] was 6.2 nM; in assay [14], 5.6 nM; in assay [15], 13 nM; in [16] it was 239 nM; in assay [17] it was 299 nM; in [18] it was 247 nM. The Kd in assay [19] is 144 nM; in assay [20], 60 nM.
